Structures can show the parent of a compound that is named as a salt.
What was measured:
[1] = biological target: 5-HT M-receptor; settings: literature values (Fozard et al.), 5-HT receptor antagonism; cited from earlier work
[2] = test system: Von Bezold-Jarisch Reflex induced by 5-HT; test: Von Bezold-Jarisch Reflex induced by 5-HT injected intravenously into the rat; type: in vivo
From the text: The activity of these compounds against 5-HT can be assessed in vivo by measurement of the effect of the compound on the Von Bezold-Jarisch Reflex induced by 5-HT injected intravenously into the rat (see Paintal A.S., Physiol. Rev. 53, 159-227, 1973; J. R. Fozard, Naunyn-Schmiedeberg's Arch. Pharmacol., 326, 1984, 36-44). The transient cardiac slowing arises from an increased afferent vagus activity arising from stimulation by 5-HT of sensory afferent fibers in and around the heart.

[3] = test system: nausea and vomiting induced by cancer chemotherapeutic agents; settings: animal experimental model (Miner et al.; Costall et al.); cited from earlier work
[4] = test system: acute migraine attack; settings: cited from earlier work
[5] = 0.01-0.1 mg/kg given intravenously

Compound	pA2 [1]	prevention of nausea and vomiting induced by cancer chemotherapeutic agents [3]	other results
CN1[C@@H]2CC[C@H]1C[C@@H](OC(=O)c1ccccc1)C2 [benzoyltropine]	7.2		
O=C(OC1CC2CC3CC(C1)N2CC3=O)c1c[nH]c2ccccc12 (stereo not drawn) [endo-hexahydro-8-(3-indolylcarbonyloxy)-2,6-methano-2H-quinolizin-3(4H)-one hydrochloride]			suppression of Von Bezold-Jarisch Reflex response [2, 5]: suppressed the response dose-dependently; suppression of Von Bezold-Jarisch Reflex response ([2]; 0.25-1 mg/kg given orally): suppressed the response dose-dependently
CN1[C@@H]2CC[C@H]1C[C@@H](OC(=O)c1c[nH]c3ccccc13)C2 [(3α-tropanyl)-1H-indole-3-carboxylic acid ester]		highly effective	
CN1[C@@H]2CC[C@H]1C[C@@H](OC(=O)c1cc(Cl)cc(Cl)c1)C2 [3,5-dichlorobenzoyltropine]		highly effective	efficacy in the acute migraine attack ([4]; double-blind clinical trial (Loisy et al.)): proved an effective treatment
CCN(CC)CCNC(=O)c1cc(Cl)c(N)cc1OC [metoclopramide]	7.2	highly effective	relief of an acute migraine attack ([4]; slow intravenous injection, 10 mg (Hughes 1977)): immediate relief of an acute migraine attack
CN1[C@@H]2CC[C@H]1C[C@H](OC(=O)c1ccccc1)C2 [pseudotropyl benzoate]	7.0		
Cc1cc(C)cc(C(=O)OC2CC3CC4CC(C2)N3CC4=O)c1 (stereo not drawn) [endo-8-(3,5-dimethylbenzoyl-oxy)hexahydro-2,6-methano-2H-quinolizin-3(4H)-one]			suppression of Von Bezold-Jarisch Reflex response [2, 5]: suppressed the response dose-dependently; suppression of Von Bezold-Jarisch Reflex response ([2]; 0.25-1 mg/kg given orally): suppressed the response dose-dependently
COC(=O)[C@H]1[C@@H](OC(=O)c2ccccc2)C[C@@H]2CC[C@H]1N2 [nor (-) cocaine]	7.7		

Reference: patent US5011846A, “Medicament compositions derived from quinolizine and quinolizinone and methods of use thereof” (Merrell Dow Pharmaceuticals Inc., priority 1988, dated 1991)
